Experiments:
IL-17AA and IL-17RA = molecular target: T1, IL-17AA and IL-17RA (Homo sapiens, UniProt Q16552); assay: Competitive inhibition of human IL-17AA and IL-17RA binding (HTRF); conditions: recombinant IL-17AA (His-tag) and IL-17RA (hFc-tag); read-out: IC50 for Inhibiting IL-AA/IL-RA Binding
T1 construct: purchased Sino Biological 12047-H07B (IL-17AA); 10895-H02H (IL-17RA)
T1 sequence (Q16552 24-155): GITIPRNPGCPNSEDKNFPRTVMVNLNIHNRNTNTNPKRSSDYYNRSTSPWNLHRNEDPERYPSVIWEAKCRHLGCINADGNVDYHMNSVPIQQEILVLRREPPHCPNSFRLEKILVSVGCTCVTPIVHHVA
Protocol: Example 42. Competitive Inhibition of Human IL-17AA and IL-17RA Binding
Recombinant IL-17AA (His-tag, Catalog Number 12047-H07B) and IL-17RA (hFc-tag, Catalog Number 10895-H02H) were purchased from Sino Biological. In the experiment, 10 μL of IL-17AA (1 nM) or IL-17RA (1 nM) was added to 10 μL of anti-6His-Tb (0.4 nM, Revvity, Catalog Number 61HISTLF) or anti-human IgG-d2 (1 μg/mL, anti-human IgG-d2, Revvity, Catalog Number 61HFCDAF), respectively and incubated at room temperature for 1 hour. Compounds were serially diluted starting from 10 μM. 5 μL of each compound solution was incubated with 5 μL of a mixture of IL-17AA and anti-6His-Tb at room temperature for 2 hours. After pre-incubation, to which was added 10 μL of a mixture of IL-17RA and anti-human IgG-d2, and incubation was continued for additional 20 minutes. Subsequently, a microplate reader (Envision, PerkinElmer) was used to detect fluorescence intensity at 615 nm and 665 nm, and the ratio of intensity thereof indicates the degree of IL-17AA and IL-17RA interaction. The ratio of intensity in the absence of tested compound was the highest value of binding between IL-17AA and IL-17RA, and the ratio of intensity in the absence of IL-17AA was the lowest value.
(§1) Therefore, the percentage of inhibition of tested compound was calculated as
Experimental results were analyzed using XLfit (IDBS) for 4-parameter nonlinear fitting analysis, to provide the IC50 value for each tested compound (Table 1).

[1] = test system: IL-17AA-induced IL-17 signaling pathway; assay: Inhibition of IL-17AA-induced IL-17 signaling pathway in HEK-Blue IL-17 reporter cells (SEAP); assay type: cell-based; conditions: Homo sapiens; HEK-Blue IL-17 cells, IL-17AA 2.5 ng/mL, 20 hours; read-out: IC50 for Inhibiting IL-AA Signaling
Source text: Example 43. Inhibition of IL-17AA-Induced IL-17 Signaling Pathway
(§2) Interleukin-17 (IL-17) reporter cell line (HEK-Blue IL-17, InvivoGen, Catalog Number hkb-i117) is created by genetically engineering human IL-17RA/IL-17RC heterodimeric receptor and downstream adapter protein ACT1 into human embryonic kidney 293 cells (HEK293). These cells also express secreted embryonic alkaline phosphatase (SEAP) reporter gene induced by NF-κB and AP-1. Therefore, IL-17AA can activate NF-κB and AP-1 signaling pathways inside the cells by binding to IL-17RA/RC on cell membrane, leading to expression of SEAP protein. After a colorimetric reaction between SEAP protein and Quanti-Blue solution, the absorbance at 620 nm is measured using a microplate reader (BioTek H1M, Agilent, Catalog Number SH1M-SN) to determine IL-17AA-activated signaling pathway.
(§3) In the experiment, HEK-Blue IL-17 cells were cultured at 37° C. under 5% CO2 conditions using the recommended medium from InvivoGen's instruction. Compounds were serially diluted starting from 10 μM. 4 μL of each compound solution was added to 32 μL of cells (10,000 cells) at 37° C. for 1 hour. After pre-incubation, 4 μL of IL-17AA with a final concentration of 2.5 ng/mL (Sino Biological, Catalog Number 12047-HNAS) was added to the cells, and incubation was continued for additional 20 hours. After incubation, 5 μL of cell culture supernatant was added to 45 μL of Quanti-Blue for the colorimetric reaction. The group without tested compound had the highest absorbance at 620 nm, and the group without IL-17AA had the lowest absorbance at 620 nm.
as §1
(§4) Experimental results were analyzed using XLfit (IDBS) for 4-parameter nonlinear fitting analysis to provide the IC50 value for each tested compound (Table 1).

[2] = test system: IL-17AF-induced IL-17 signaling pathway; assay: Inhibition of IL-17AF-induced IL-17 signaling pathway; assay type: cell-based; conditions: Homo sapiens; IL-17AF used instead of IL-17AA; read-out: IC50 for Inhibiting IL-AF Signaling
Source text: as §2, §3, §1, §4
Example 44. Inhibition of IL-17AF-Induced IL-17 Signaling Pathway
The same experimental procedure to Example […] was followed where IL-17AF was used instead of IL-17AA.

With `CCc1nonc1C(=O)N[C@H](C(=O)Nc1ccc([C@H](C)[C@@H](NC(=O)COC)c2nnnn2CC2CC2)cc1F)C(C1CC1)C1CC1` [Compound 29, N-((S)-1,1-dicyclopropyl-3-((4-((1R,2S)-1-(1-(cyclopropylmethyl)-1H-tetrazol-5-yl)-1-(2-methoxyacetamido)propan-2-yl)-2-fluorophenyl)amino)-3-oxopropan-2-yl)-4-ethyl-1,2,5-oxadiazole-3-carboxamide] as the molecule, how does the IC50 (IL-17AA and IL-17RA) read?
Its IC50 is 0.9 nM.

And the IC50 [1]?
Its IC50 is 2 nM.

And the IC50 [2]?
Its IC50 is 3.2 nM.

With `CCCn1cnc([C@H](NC(=O)COC)[C@@H](C)c2ccc(NC(=O)[C@@H](NC(=O)c3ccnn3CC)C(C3CC3)C3CC3)c(F)c2)n1` [Compound 30, N-((S)-1,1-dicyclopropyl-3-((2-fluoro-4-((1R,2S)-1-(2-methoxyacetamido)-1-(1-propyl-1H-1,2,4-triazol-3-yl)propan-2-yl)phenyl)amino)-3-oxopropan-2-yl)-1-ethyl-1H-pyrazole-5-carboxamide] as the molecule, how does the IC50 (IL-17AA and IL-17RA) read?
Its IC50 is 23 nM.

And the IC50 [1]?
Its IC50 is 32 nM.

And the IC50 [2]?
The IC50 was 66 nM.

`CCCn1ncnc1[C@H](NC(=O)COC)[C@@H](C)c1ccc(NC(=O)[C@@H](NC(=O)c2ccnn2CC)C(C2CC2)C2CC2)c(F)c1` [Compound 31, N-((S)-1,1-dicyclopropyl-3-((2-fluoro-4-((1R,2S)-1-(2-methoxyacetamido)-1-(1-propyl-1H-1,2,4-triazol-5-yl)propan-2-yl)phenyl)amino)-3-oxopropan-2-yl)-1-ethyl-1H-pyrazole-5-carboxamide] was tested. Which IC50 (IL-17AA and IL-17RA) did it give?
Its IC50 is 11 nM.

What about the IC50 [1] of the same molecule?
The IC50 was 6.9 nM.

What about the IC50 [2] of the same molecule?
The IC50 was 13 nM.

For `COCC(=O)N[C@@H](c1nncn1CC1CC1)[C@@H](C)c1ccc(NC(=O)[C@@H](NC(=O)OCc2cc(C(F)F)on2)C(C2CC2)C2CC2)c(F)c1` [Compound 32, (5-(Difluoromethyl)isoxazol-3-yl)methyl ((S)-1,1-dicyclopropyl-3-((4-((1R,2S)-1-(4-(cyclopropylmethyl)-4H-1,2,4-triazol-3-yl)-1-(2-methoxyacetamido)propan-2-yl)-2-fluorophenyl)amino)-3-oxopropan-2-yl)carbamate], which IC50 (IL-17AA and IL-17RA) is on record?
Its IC50 is 2.8 nM.

What about the IC50 [1] of the same molecule?
The IC50 was 5.7 nM.

And the IC50 [2]?
Its IC50 is 8.6 nM.

Which results are given for `COCC(=O)N[C@@H](c1ncnn1CC1CC1)[C@@H](C)c1ccc(NC(=O)[C@@H](NC(=O)c2ccnn2C(C)C)C(C2CC2)C2CC2)c(F)c1` [Compound 33, N-((S)-1,1-dicyclopropyl-3-((4-((1R,2S)-1-(1-(cyclopropylmethyl)-1H-1,2,4-triazol-5-yl)-1-(2-methoxyacetamido)propan-2-yl)-2-fluorophenyl)amino)-3-oxopropan-2-yl)-1-isopropyl-1H-pyrazole-5-carboxamide]?
IC50 (IL-17AA and IL-17RA): 7.9 nM; IC50 [1]: 3.1 nM; IC50 [2]: 7.7 nM

`CCc1nonc1C(=O)N[C@H](C(=O)Nc1ccc([C@H](C)[C@@H](NC(=O)COC)c2ncnn2CC2CC2)cc1F)C(C1CC1)C1CC1` [Compound 34, N-((S)-1,1-dicyclopropyl-3-((4-((1R,2S)-1-(1-(cyclopropylmethyl)-1H-1,2,4-triazol-5-yl)-1-(2-methoxyacetamido)propan-2-yl)-2-fluorophenyl)amino)-3-oxopropan-2-yl)-4-ethyl-1,2,5-oxadiazole-3-carboxamide] was tested. Which IC50 (IL-17AA and IL-17RA) did it give?
Its IC50 is 2.6 nM.

And the IC50 [1]?
The IC50 was 2.2 nM.

And the IC50 [2]?
The IC50 was 3.2 nM.

For `CCn1nccc1C(=O)N[C@H](C(=O)Nc1ccc([C@H](C)[C@@H](NC(=O)COC)c2ncnn2CC(C)C)cc1F)C(C1CC1)C1CC1` [Compound 36, N-((S)-1,1-dicyclopropyl-3-((2-fluoro-4-((1R,2S)-1-(1-isobutyl-1H-1,2,4-triazol-5-yl)-1-(2-methoxyacetamido)propan-2-yl)phenyl)amino)-3-oxopropan-2-yl)-1-ethyl-1H-pyrazole-5-carboxamide], which IC50 (IL-17AA and IL-17RA) is on record?
Its IC50 is 3.7 nM.

And the IC50 [1]?
Its IC50 is 2 nM.

What about the IC50 [2] of the same molecule?
The IC50 was 2.2 nM.

Which IC50 (IL-17AA and IL-17RA) does the source give for `CCn1nccc1C(=O)N[C@H](C(=O)Nc1ccc([C@H](C)[C@H](NC(=O)COC)c2nncn2CC2CC2)cc1F)C(C1CC1)C1CC1` [Compound 37, N-((S)-1,1-dicyclopropyl-3-((4-((1S,2S)-1-(4-(cyclopropylmethyl)-4H-1,2,4-triazol-3-yl)-1-(2-methoxyacetamido)propan-2-yl)-2-fluorophenyl)amino)-3-oxopropan-2-yl)-1-ethyl-1H-pyrazole-5-carboxamide] here?
The IC50 was 125 nM.

What about the IC50 [1] of the same molecule?
Its IC50 is 74 nM.

What about the IC50 [2] of the same molecule?
Its IC50 is 232 nM.

How did the IC50 (IL-17AA and IL-17RA) turn out when `CCn1nccc1C(=O)N[C@H](C(=O)Nc1ccc([C@H](C)[C@@H](NC(=O)COC)c2nccn2CC2CC2)cc1F)C(C1CC1)C1CC1` [Compound 38, N-((S)-1,1-dicyclopropyl-3-((4-((1R,2S)-1-(1-(cyclopropylmethyl)-1H-imidazol-2-yl)-1-(2-methoxyacetamido)propan-2-yl)-2-fluorophenyl)amino)-3-oxopropan-2-yl)-1-ethyl-1H-pyrazole-5-carboxamide] was run?
Its IC50 is 7.5 nM.

And the IC50 [1]?
The IC50 was 2.9 nM.

And the IC50 [2]?
Its IC50 is 7 nM.

Which results are given for `CCn1nccc1C(=O)N[C@H](C(=O)Nc1ccc([C@H](C)[C@@H](NC(=O)COC)c2ncnn2CCOC)cc1F)C(C1CC1)C1CC1` [Compound 40]?
IC50 (IL-17AA and IL-17RA): 7.4 nM; IC50 [1]: 2.6 nM; IC50 [2]: 8.6 nM

With `CCn1nccc1C(=O)N[C@H](C(=O)Nc1ccc([C@H](C)[C@@H](NC(=O)COC)c2ncnn2CC2CC2)cc1F)C1CCC(C)CC1` (stereo partly drawn) [Compound 41, N-((S)-2-((4-((1R,2S)-1-(1-(cyclopropylmethyl)-1H-1,2,4-triazol-5-yl)-1-(2-methoxyacetamido)propan-2-yl)-2-fluorophenyl)amino)-1-((1R,4S)-4-methylcyclohexyl)-2-oxoethyl)-1-ethyl-1H-pyrazole-5-carboxamide] as the molecule, how does the IC50 (IL-17AA and IL-17RA) read?
Its IC50 is 4.9 nM.

What about the IC50 [1] of the same molecule?
Its IC50 is 11 nM.

What about the IC50 [2] of the same molecule?
Its IC50 is 16 nM.

For `CCn1nccc1C(=O)N[C@H](C(=O)Nc1ccc([C@H](C)[C@@H](NC(=O)COC)c2ncnn2CC2CC2)cc1F)C1CCCCCC1` [Compound 42, N-((S)-1-cycloheptyl-2-((4-((1R,2S)-1-(1-(cyclopropylmethyl)-1H-1,2,4-triazol-5-yl)-1-(2-methoxyacetamido)propan-2-yl)-2-fluorophenyl)amino)-2-oxoethyl)-1-ethyl-1H-pyrazole-5-carboxamide], which IC50 (IL-17AA and IL-17RA) is on record?
Its IC50 is 4.9 nM.

And the IC50 [1]?
The IC50 was 5.1 nM.

What about the IC50 [2] of the same molecule?
The IC50 was 11 nM.

What does the source list for `[2H]C([2H])([2H])n1nccc1C(=O)N[C@H](C(=O)Nc1ccc([C@H](C)[C@@H](NC(=O)CC)c2ncn(CC3CC3)n2)cc1F)C(C1CC1)C1CC1` [Compound 43, N-((S)-1,1-dicyclopropyl-3-((4-((1R,2S)-1-(1-(cyclopropylmethyl)-1H-1,2,4-triazol-3-yl)-1-propionamidopropan-2-yl)-2-fluorophenyl)amino)-3-oxopropan-2-yl)-1-(methyl-d3)-1H-pyrazole-5-carboxamide]?
IC50 (IL-17AA and IL-17RA): 9.4 nM; IC50 [1]: 16 nM; IC50 [2]: 27 nM

`CCC(=O)N[C@@H](c1ncnn1CC1CC1)[C@@H](C)c1ccc(NC(=O)[C@@H](NC(=O)c2ccnn2C(C)C)C(C2CC2)C2CC2)c(F)c1` [Compound 44, N-((S)-1,1-dicyclopropyl-3-((4-((1R,2S)-1-(1-(cyclopropylmethyl)-1H-1,2,4-triazol-5-yl)-1-propionamidopropan-2-yl)-2-fluorophenyl)amino)-3-oxopropan-2-yl)-1-isopropyl-1H-pyrazole-5-carboxamide] was tested. Which IC50 (IL-17AA and IL-17RA) did it give?
Its IC50 is 1.9 nM.

What about the IC50 [1] of the same molecule?
Its IC50 is 4.4 nM.

And the IC50 [2]?
The IC50 was 29 nM.
